Experiments:
alpha-7 nAChRs = alpha-7 nAChRs (Homo sapiens, UniProt P36544); conditions: cited from earlier work
human alpha-7 nAChR [1] = target: T1, human alpha-7 nAChR (Homo sapiens, UniProt P36544); assay: Electrophysiological evaluation of PAMs and ago-PAMs in Xenopus oocytes (direct activation, direct and primed potentiation); type: cell-based; conditions: for direct activation when applied alone / primed potentiation of subsequent responses to ACh applied alone: FIGS. 2A-2F; for peak efficacy in the presence of ACh: GAT154 vs GAT155
T1 construct: expressed in transfected cells; host or cells: Xenopus laevis oocytes (cRNA injection)
Description: Electrophysiological evaluation in Xenopus oocytes was used to determine the potency and efficacy with which PAMs and ago-PAMs of the invention produce self-induced agonism and positive allosteric modulation of the orthosteric, agonist-induced activation of the alpha-7 nAChR. The ability of these compounds to increase the maximal channel influx and to enhance the activity of the receptor on its own as well as in presence of choline is denoted by Imax and EC50 respectively. The details of cDNA clones and RNA for injection was as published. Thakur et. al. 2013, J. Med. Chem. 2013 Nov. 14; 56(21):8943-7. doi: 10.1021/jm401267t). For experiments involving PAM and ago-PAM analogs, where standard levels of expression result in ion currents too large to be recorded in voltage clamp, experiments were typically conducted 1-3 days after RNA injection.
Two-electrode voltage clamp was conducted using OpusXpress 6000A (Molecular Devices, Union City, Calif.). Both the voltage and current electrodes were filled with 3 M KCl. Oocytes were voltage-clamped at −60 mV except when determining the effect of voltage on channel activation. The oocytes were bath-perfused with Ringer's solution (115 mM NaCl, 2.5 mM KCl, 1.8 mM CaCl2, 10 mM HEPES, and 1 μM atropine, pH 7.2) with a flow rate of 2 mL/min. To evaluate the effects of experimental compounds on ACh-evoked responses of alpha-7 nAChRs expressed in oocytes, the initial control responses were measured with two applications of ACh alone, before applications of experimental drugs alone or co-applications with ACh. The agonist solutions were applied from a 96-well plate via disposable tips, and the drugs were either co-applied with ACh by the OpusXpress pipette delivery system or bath-applied using the OpusXpress system to switch the running buffer. Drug applications were for 12 s followed by a 181 s washout period and usually alternated between controls and test solutions. After experimental drug applications, follow-up control applications of ACh were made to determine primed potentiation, desensitization or rundown of the receptors. Data were collected at 50 Hz, filtered at 20 Hz, analyzed by Clampfit 9.2 (Molecular Devices) and Excel (Microsoft, Redmond Wash.), and normalized to the averaged current of the two initial control responses. Data were expressed as mean±SEM from at least four oocytes for each experiment. For the concentration-response relationships, responses were normalized to the net charge of the most adjacent prior control.
A detailed comparative activity profile of select ago-PAMs/PAMs based on the structure of 4BP-TQS was obtained. […] They also functioned as direct PAMs, producing responses when co-applied with ACh. However, the primed potentiation of response to ACh alone was less after direct potentiation than after direct activation, due to residual induction of PAM-insensitive desensitization.

Solubility comparison = type: physicochemical
human alpha-7 nAChR [2] = target: T1, human alpha-7 nAChR; assay: Two-electrode voltage clamp of alpha-7 nAChR expressed in Xenopus oocytes (net charge); type: cell-based; conditions: area under the curve of current vs. time; for Charge Alone: compound alone acting as an allosteric agonist; for Charge +C: compound together with choline or ACh, includes PAM and ago-PAM activity
In short: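 Human α7 nAChR co-expressed with RIC-3 in Xenopus oocytes; two-electrode clamp at −60 mV, 12 s applications in Ringer's pH 7.3. Net charge integrated over 120 s from application, normalized to prior ACh controls; measured for compound alone and with choline or ACh; n≥4 oocytes.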

CCI mice = assay: Chronic constriction injury (CCI) model, mechanical allodynia (von Frey); type: in vivo, mouse; conditions: for threshold for pain in the CCI model: dose of 1 mg/kg, FIG. 5B
Description: Mice were anesthetized with pentobarbital (45 mg/kg, i.p.). An incision was made just below the hipbone, parallel to the sciatic nerve. The right common sciatic nerve was exposed at the level proximal to the sciatic trifurcation, and a nerve segment 3-5 mm long was separated from surrounding connective tissue. Two loose ligatures with 6-0 silk suture were made around the nerve with a 1.0-1.5 mm interval between them. Muscles were closed with suture thread and the wound with wound clips. […] Any suture that remained after two weeks was removed from the healed surgical wound. Mechanical allodynia (von Frey test) was measured before and after drug injections.
The antiallodynic effects of test compounds were assessed in three experiments consisting of CCI mice and sham control mice. […] The anti-allodynic effects of alpha-7 nAChRs PAMs and ago-PAMs were tested (four doses and vehicle control, N=10 mice/group, administered i.p.) in the CCI model. Mice were assessed for mechanical allodynia 2 weeks after the CCI surgery. All these studies will be conducted in blinded manner. CCI and sham control mice received two conditioning sessions per day (vehicle in the morning and drug in the afternoon) over the course of 3 days, and were tested for a place preference on day 7 without any injections.
Pain behavioral data are presented as mean±S.E.M. (see FIGS. 5A and 5B). Statistical analysis was performed using the t-test or two-way analysis of variance test, followed by the post-hoc Bonferroni's test. All differences were considered significant at p<0.05, and significant differences are shown with asterisks in FIGS. 5A and 5B. ED50 values with 95% confidence limits (CL) were calculated by unweighted least-squares linear regression.

T1 sequence (P36544 23-502): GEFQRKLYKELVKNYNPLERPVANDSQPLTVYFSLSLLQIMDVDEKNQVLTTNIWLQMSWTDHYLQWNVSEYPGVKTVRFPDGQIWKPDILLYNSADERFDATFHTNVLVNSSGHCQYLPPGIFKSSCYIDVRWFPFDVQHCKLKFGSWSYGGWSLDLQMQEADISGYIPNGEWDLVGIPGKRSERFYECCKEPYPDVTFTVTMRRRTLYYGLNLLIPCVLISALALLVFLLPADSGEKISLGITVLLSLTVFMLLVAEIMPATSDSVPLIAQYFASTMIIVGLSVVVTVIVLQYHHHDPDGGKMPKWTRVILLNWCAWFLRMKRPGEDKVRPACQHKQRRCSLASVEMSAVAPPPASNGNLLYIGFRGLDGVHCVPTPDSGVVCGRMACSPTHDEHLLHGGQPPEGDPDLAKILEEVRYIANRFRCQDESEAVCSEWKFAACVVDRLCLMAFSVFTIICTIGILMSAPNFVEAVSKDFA
alpha-7 nAChRs, sequence (P36544 23-502): as above

Row | SMILES | maximal response larger than ACh (alpha-7 nAChRs; agonist efficacy relative to ACh) | EC50 lower than ACh (alpha-7 nAChRs; agonist potency relative to ACh) | direct activation when applied alone (human alpha-7 nAChR [1]) | primed potentiation of subsequent responses to ACh applied alone (human alpha-7 nAChR [1]) | peak efficacy in the presence of ACh (human alpha-7 nAChR [1]) | solubility compared to GAT107 (Solubility comparison) | Charge Alone (human alpha-7 nAChR [2]) | Charge +C (human alpha-7 nAChR [2]) | threshold for pain in the CCI model (CCI mice) | reversal of CCI effect (CCI mice; 1 mg/kg) | effectiveness relative to GAT155 in the CCI model (CCI mice; same dose of 1 mg/kg) | effect on sham mice (CCI mice; sham control mice)
1 | NS(=O)(=O)c1ccc2c(c1)C1C=CCC1C(c1ccc(Br)cc1)N2 (racemic) [Compound 4BP-TQS, 4-(4-bromophenyl)-3a,4,5,9b-tetrahydro-3H-cyclopenta[c]quinoline-8-sulfonamide] | 45 fold | 8 fold | – | – | – | – | – | – | – | – | – | –
2 | NS(=O)(=O)c1ccc2c(c1)[C@H]1C=CC[C@H]1[C@@H](c1cc(Br)cs1)N2 (stereo in doubt) [Compound 37, 4-(4-bromothiophen-2-yl)-3a,4,5,9b-tetrahydro-3H-cyclopenta[c]quinoline-8-sulfonamide] | – | – | negligible direct activation | large primed potentiation | almost equal peak efficacy | significantly better solubility compared to GAT107 | 0 | 163 | effective in increasing the threshold for pain | – | – | –
3 | NS(=O)(=O)c1ccc2c(c1)[C@H]1C=CC[C@H]1[C@@H](c1ccc(Br)s1)N2 (stereo in doubt) [Compound 36, 4-(5-bromothiophen-2-yl)-3a,4,5,9b-tetrahydro-3H-cyclopenta[c]quinoline-8-sulfonamide] | – | – | directly activated human alpha-7 nAChR | large primed potentiation | almost equal peak efficacy | significantly better solubility compared to GAT107 | 48 | 1145 | effective in increasing the threshold for pain | completely reversed the effect | twice as effective at every time point | without showing any significant effect on the sham mice

From patent US11299496B2, “Ligands for alpha-7 nicotinic acetylcholine receptors and methods of treating neurological and inflammatory conditions” (Northeastern University, priority 2014, dated 2022)
